Molecules are shown by their SMILES. Calls of active or inactive are those of the source.

Drawing on ChEMBL document CHEMBL1201862, “PubChem BioAssay data set” (2004), this text covers AC50 and EC50 for 30 molecules.

The target of one series is Cytochrome P450 2C19 (Homo sapiens, UniProt P33261). Description: Cytochrome panel assay with activity outcomes. Panel member name: p450-cyp2c19 Compounds with AC50 equal or less than 10 uM are considered active. Type of series: functional.
For the next series, the system named is Streptococcus. Description: GAS UMAA2166 growth inhibition – luminescence, BacTiterGlo, counter-screen for streptokinase expression inhibitor project, dose response (AID 1915).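 Further: potency for reduction of bacterial viability or growth.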 It is filed as functional, organism-based.
For series [1], the system named is Streptococcus sp. 'group A'. Description: Streptococcus pyogenes SK(-)GAS viability under kanamycin – luminescence, BacTiterGlo, confirmation, counter-screen for streptokinase expression inhibitor project, dose response (AID 1900). Type of series: functional, organism-based.
The next series addresses T1, Streptokinase A (Streptococcus pyogenes serotype M1, UniProt P10520).
T1 sequence (P10520 whole entry): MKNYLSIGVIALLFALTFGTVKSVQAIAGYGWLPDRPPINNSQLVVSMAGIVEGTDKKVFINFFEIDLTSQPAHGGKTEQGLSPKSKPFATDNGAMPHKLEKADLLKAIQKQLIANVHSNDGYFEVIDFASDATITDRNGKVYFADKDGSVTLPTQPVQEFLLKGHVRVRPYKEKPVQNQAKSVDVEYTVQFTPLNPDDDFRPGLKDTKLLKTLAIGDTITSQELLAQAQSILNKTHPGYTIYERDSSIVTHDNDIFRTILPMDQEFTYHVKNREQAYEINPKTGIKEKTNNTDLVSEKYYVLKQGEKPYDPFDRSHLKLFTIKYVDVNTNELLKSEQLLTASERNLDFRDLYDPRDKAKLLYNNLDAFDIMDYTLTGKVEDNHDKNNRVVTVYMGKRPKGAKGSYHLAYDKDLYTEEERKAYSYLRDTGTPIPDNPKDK
Briefly: viability-normalized secreted streptokinase activity reduction – plasminogen activation absorbance, OD405, dose response (AID 1914).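 Further: secreted streptokinase activity via plasminogen activation per viability signal from cell pellet.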 It is filed as functional, Streptococcus pyogenes M1 GAS.

The nature of series [2]: NIH3T3 cell viability loss – ATP luminescence, mouse fibroblasts, counter-screen, dose response (AID 2010).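 Further: cells exposed to compound for about 90 hours before reading.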 It is filed as functional, cell-based.
Series [3] is described as follows: Trypanosoma cruzi growth suppression in host cells – NIH3T3 host cells, beta-gal luminescence, confirmation (AID 2044).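 Further: intracellular parasites grown in NIH/3T3 mouse fibroblasts as host cells; luminescent beta-galactosidase reporter signal from transgenic T. cruzi replicating inside host cells; inhibitors lower the luminescence signal.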 Type of series: functional, cell-based.

Cytochrome P450 2C19, sequence (P33261 whole entry): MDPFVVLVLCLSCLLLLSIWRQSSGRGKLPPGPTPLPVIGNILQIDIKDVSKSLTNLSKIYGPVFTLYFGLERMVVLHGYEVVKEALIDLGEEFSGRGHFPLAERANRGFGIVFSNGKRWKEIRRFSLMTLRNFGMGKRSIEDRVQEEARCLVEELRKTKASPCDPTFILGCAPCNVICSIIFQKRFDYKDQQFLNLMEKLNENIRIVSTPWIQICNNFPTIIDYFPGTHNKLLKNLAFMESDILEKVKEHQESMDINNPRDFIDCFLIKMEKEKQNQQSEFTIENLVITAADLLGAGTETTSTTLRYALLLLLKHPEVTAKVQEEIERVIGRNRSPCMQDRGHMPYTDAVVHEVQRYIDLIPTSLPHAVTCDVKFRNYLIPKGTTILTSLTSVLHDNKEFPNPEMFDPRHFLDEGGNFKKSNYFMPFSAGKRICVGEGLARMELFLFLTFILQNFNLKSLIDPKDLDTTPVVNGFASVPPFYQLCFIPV

In the case of `c1ccc(C2CCC(N3CCC(N4CCCCC4)CC3)CC2)cc1` (stereo not given), at Cytochrome P450 2C19 (read-out: AC50), the half-maximal activity concentration (AC50) was 31.6 µM (inconclusive).
For the molecule `O=C(O)CC/C(=C\c1cc2c(cc1Br)OCO2)c1nc2ccccc2s1`, the EC50 was > 150 µM (not active) in the series with Streptococcus, 5.71 µM (active) in series [1] and 56 µM (active) on Streptokinase A.
Taken in the same sequence, the figures for `Cc1ccccc1N1CCN(S(=O)(=O)c2nnc(NC(=O)c3ccco3)s2)CC1` were 41.7 µM (active), 11 µM (active) and 5.16 µM (active).
As to `CC(C)C[C@@H](C(=O)NC1CCN(Cc2ccccc2)CC1)N1C(=O)N2CCc3c([nH]c4ccccc34)[C@@]2(C)C1=O`, the 50% effective concentration (EC50) was 5.05 µM (active) in series [2] and 6.88 µM (active) in series [3].
As for `COc1cccc(C(Nc2ccccn2)c2c(NC(=O)c3ccco3)sc(C)c2C)c1` (stereo not given), the values for the EC50 in series [2] and in series [3] were > 60 µM (not active) and 2.53 µM (active), respectively.
Take `Cc1cccc(CSC2=NCCN2S(=O)(=O)c2ccc(F)cc2)c1`: the EC50 was > 150 µM (not active) in the series with Streptococcus, 41.8 µM (active) in series [1] and 23.2 µM (active) on Streptokinase A.
Take `CCOc1ccc(CCNC(=O)C(CC)n2nc(C)n3c(cc4sccc43)c2=O)cc1OCC` (stereo not given): the concentration giving a half-maximal response (EC50) in series [2] is > 60 µM (not active); in series [3], 1.31 µM (active).
On to `Cn1c(=O)c2nc(CCCCc3nc4c(=O)n(C)c(=S)n(C)c4[nH]3)[nH]c2n(C)c1=S`, for which, on Cytochrome P450 2C19, the half-maximal activity concentration (AC50) entry is on record as “inconclusive”.
As to `CN(CCOc1ccccc1)CC(=O)Nc1ccc(S(=O)(=O)N2CCCC2)cc1`, the values for the concentration for a half-maximal effect (EC50) in series [2] and in series [3] were > 60 µM (not active) and 0.695 µM (active), respectively.
Taken in the same sequence, the figures for `CCOc1ccc2oc(C(=O)NC3CCN(Cc4ccccc4)CC3)c(C)c2c1` were > 60 µM (not active) and 2 µM (active).
With `Cc1ccc(S(=O)(=O)NCc2cccc([N+](=O)[O-])c2)cc1`, the concentration at half-maximal activity (AC50) at Cytochrome P450 2C19 (read-out: AC50) was 2.51 µM (inconclusive).
Turning to `CC(NCc1ccncc1)C12CC3CC(CC(C3)C1)C2` (stereo not given), the EC50 in series [2] and in series [3] was > 60 µM (not active) throughout.
As to `C#C[C@]1(O)CC[C@@H]2[C@H]3CCc4cc(OC)ccc4[C@@H]3CC[C@@]21C`, the AC50 at Cytochrome P450 2C19 (read-out: AC50) is 1.26 µM (inconclusive).
The same measure, in the same setting: for `CC[C@H]1C2=C3C(CC[C@H]4C(OCc5ccc(F)cc5C(F)(F)F)OC[C@](C)([C@@H]34)N(C(=O)OC(C)(C)C)C2)C2COC(=O)OCC21` (stereo not given in full) the value was 39.8 µM (inconclusive).
Consider `OC(CN1CCN(Cc2ccccc2)CC1)c1ccc(Br)cc1` (stereo not given), for which the EC50 was 10 µM (active) in series [2] and 0.324 µM (active) in series [3].
Turning to `Cc1ccc(C(=O)Nc2nc(-c3ccccc3)c(-c3ccccc3)o2)cc1`, the concentration giving a half-maximal response (EC50) is 2.36 µM (active) in the series on Streptococcus, 1.27 µM (active) in series [1], > 60 µM (not active) in series [2] and 2.48 µM (active) in series [3].
With `Cc1c(C(=O)N2CCN(S(=O)(=O)c3ccc(F)cc3)CC2)oc2ccccc12`, the EC50 was > 60 µM (not active) in series [2] and 0.447 µM (active) in series [3].
Take `COC(=O)NCC(c1cccnc1)N1CCN(c2ccccc2OC)CC1` (stereo not given): the concentration at half-maximal activity (AC50) on Cytochrome P450 2C19 (read-out: AC50) was 11.2 µM (inconclusive).
With `CC(C)C(NC(=O)C(c1ccccc1)c1ccccc1)c1nc2ccccc2[nH]1` (stereo not given), the results for the EC50 (in the series on Streptococcus; in series [1]; at Streptokinase A) were 16 µM (active), 1.87 µM (active) and > 150 µM (not active), respectively.
For `COc1ccc(C(=O)NNC(=S)NC(=O)c2ccco2)cc1` the same measures were 12 µM (active), 2.98 µM (active) and > 150 µM (not active).
Turning to `CCCCN(CCCC)c1cc(C)nc(-c2ccccc2O)n1`, the EC50 was > 150 µM (not active) with Streptococcus, 19.7 µM (active) in series [1] and 5.4 µM (active) on Streptokinase A.
As to `CCCC[C@@H]1C[C@H]1C(NC(=O)c1cccs1)c1ccc(C(F)(F)F)cc1` (stereo not given in full), the half-maximal activity concentration (AC50) result on Cytochrome P450 2C19 was “inconclusive”.
With `Cc1cc(Cl)c(OCCOCCN2CCCC(C)C2)c(Br)c1` (stereo not given), the EC50 in series [2] was > 60 µM (not active); in series [3], 0.393 µM (active).
Taken in the same sequence, the figures for `CN(C)CCCOc1ccc(Cl)cc1Br` were > 60 µM (not active) and 0.535 µM (active).
Regarding `O=C(COc1ccccc1)Nc1nnc(-c2ccccc2Cl)o1`, the EC50 (in the series with Streptococcus; in series [1]; at Streptokinase A) was > 150 µM (not active) each time.
Regarding `COc1ccccc1N=C(S)N(Cc1ccc(C)cc1)Cc1ccccn1`, the EC50 is > 60 µM (not active) in series [2] and 1.55 µM (active) in series [3].
Taken in the same sequence, the figures for `CN(C)CCCNC(=O)c1cc2c3ccccc3n(C)c2s1` were > 60 µM (not active) and 0.136 µM (active).
Turning to `COC(=O)N1CCC2(CCN(C(=O)Nc3cccc(F)c3)CC2)CC1`, at Cytochrome P450 2C19 (read-out: AC50), the half-maximal activity concentration (AC50) is 5.01 µM (inconclusive).
As for `Cc1cc(C)n2nc(SCC(=O)N/N=C/c3ccccc3F)nc2n1`, the AC50 on Cytochrome P450 2C19 (read-out: AC50) was 20 µM (inconclusive).
Turning to `CC1(C)S[C@@H]2[C@H](NC(=O)C(NC(=O)N3CCNC3=O)c3ccccc3)C(=O)N2[C@H]1C(=O)O` (stereo not given in full), the concentration giving a half-maximal response (EC50) (in the series on Streptococcus; in series [1]) was < 0.06 µM (active) each time.
